Here are results for 21 compounds from patent publication US6040320A, “2-substituted imidazoles useful in the treatment of inflammatory diseases” (Ortho-McNeil Pharmaceutical, Inc., priority 1998, dated 2000).

As a reminder, the IC50 is the concentration needed to halve the response being measured.

One test addresses T1, p38 (Homo sapiens, UniProt Q16539).
T1 construct: 6xHis (N); made in house; host or cells: E. coli
The experiment in a line: in vitro inhibition of p38 (CPSB): purified recombinant 6xHis-p38, myelin basic protein substrate, 33P-ATP. The test is classed as biochemical.

For test [1], the system named is TNF-α. The experiment in a line: in vitro whole cell assay: LPS-stimulated TNF-α production in PBMC (ELISA). The test is classed as cell-based, human. The note with it: for IC50: read-out: TNF-α IC50. Here is the method: In addition to the enzyme assay, the compounds of the invention were tested in an in vitro whole cell assay using peripheral blood mononuclear cells ("PBMC") which were obtained from human blood as follows. Freshly obtained venous blood was anticoagulated with heparin, diluted with an equal volume of phosphate buffered saline ("PBS") and placed in a sterile tube or other container. Aliquots (30 mL) of this mixture were transferred to centrifuge tubes which were underlaid with Ficoll-Hypaque (15 mL). The prepared tubes were centrifuged at 400×g without braking for 30 min at room temperature. Approximately 1/2 to 2/3 of the platelet layer above the mononuclear cell band was removed with a pipet. The majority of the mononuclear cell layer was carefully removed using a pipet and these PBMCs were diluted with PBS and spun at 600×g for 15 min. The resulting PBMCs were washed with another portion of PBS and spun at 400×g for 10 min at room temperature. The recovered pellets were diluted in low endotoxin RPMI/1% FCS culture medium and gave a cell concentration of 0.5-2.0 X 10^6 PMBC/mL. A small volume of the suspension was removed for counting on a hemocytometer and the remaining preparation was centrifuged at 200×g for 15 min at room temperature. The recovered pelleted PMBC were resuspended in RPMI/1% FCS to a concentration of 1.67×10^6 /mL.
To run the assay, the PBMC suspension (180 μL) was transferred to duplicate wells of a 96-well flat-bottom microtiter plate and incubated for 1 h at 37° C. A solution of test compound (10 μL: prepared at 20×the desired final concentration) was added to each well and the plate was incubated for 1 h at 37° C. A solution (10 μL) of LPS in RPMI/1% FCS (200 ng/mL) was added and the wells were incubated overnight at 37° C. The supernate (100 μL) was removed from each well and diluted with RPMI/1% FCS (400 μL). The samples were analyzed for TNF-α using a commercial ELISA kit (Genzyme). […] Since imidazoles which are unsubstituted at the 1-position are subject to tautomerization, the substituents listed for R1 and R2 are interchangeable when R3 is hydrogen.
A general note: In an ELISA, binding on a coated surface is turned into a signal by an enzyme label.

In another test the test system is IL-1β. The test can be described thus: in vitro IL-1β production by LPS-stimulated plastic-adherent cells from PBMC (ELISA). The test is classed as cell-based. The following applies: adherent cells from human PBMC, read-out: inhibited the production of IL-1B, IC50. Here is the method: Aliquots (30 mL) of this mixture were transferred to centrifuge tubes which were underlaid with Ficoll-Hypaque (15 mL). The prepared tubes were centrifuged at 400×g without braking for 30 min at room temperature. […] A small volume of the suspension was removed for counting on a hemocytometer and the remaining preparation was centrifuged at 200×g for 15 min at room temperature.

In test [2] the test system is TNF-α. The experiment in a line: in vivo rodent assay: inhibition of LPS induced TNF-α production, mouse. The following applies: oral, 25 mg/kg, LPS 1 mg/kg i.p. Here is the method:
Mice (BALB / cJ females, Jackson Laboratories) or rats (Lewis males, Charles River) were fasted for 30 min prior to oral dosing with 5-10 mL/kg of test compound at 5-50 mg/kg. Thirty minutes after dosing, the animals were injected intraperitoneally with LPS at 1 mg/kg and returned to their cages for I h. Animals were anesthetized by CO2, exsanguinated by cardiac puncture and whole blood collected (0.1-0.7 mL). The blood was allowed to clot and serum was transferred to a centrifuge tube. This sample was centrifuged, serum was collected, aliquoted and frozen at -80° C. Samples were tested by commercial ELISAs for TNF-α (Endogen for mouse TNF-α and Biosource for rat TNF-α). Compounds 15 and 56 inhibited TNF-α production in the mouse at 88% and 37% respectively at a dose of 25 mg/kg.

Read-outs that look alike come from different tables or passages of the source.

T1 sequence (Q16539 whole entry): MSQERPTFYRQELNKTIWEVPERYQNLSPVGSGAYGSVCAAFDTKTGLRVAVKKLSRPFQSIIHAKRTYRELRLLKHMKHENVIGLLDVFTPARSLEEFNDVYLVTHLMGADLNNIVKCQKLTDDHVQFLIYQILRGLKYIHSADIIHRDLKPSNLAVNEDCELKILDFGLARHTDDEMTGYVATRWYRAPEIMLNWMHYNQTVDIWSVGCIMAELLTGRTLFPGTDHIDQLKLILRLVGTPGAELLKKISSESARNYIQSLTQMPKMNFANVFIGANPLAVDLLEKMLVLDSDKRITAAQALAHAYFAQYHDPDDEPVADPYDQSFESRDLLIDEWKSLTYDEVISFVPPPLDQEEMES
Method for p38: Compounds of the invention were measured for their ability to inhibit the activity of p38 by the following in vitro assay.
A solution (38 μL) of purified recombinant p38 (where the amount of enzyme was determined empirically considering the linear range of the assay and the acceptable signal to noise ratio; 6xHis-p38 expressed in E.coli), myelin basic protein substrate (also determined empirically), a buffer of pH 7.5 (Hepes:25 mM, MgCl2 :10 mM, MnCl2 :10 mM) were added to 92 wells of a 96-well round bottom polypropylene plate. The remaining wells were used for control ("CTRL") and background ("BKG"). The CTRL was prepared with the enzyme, substrate buffer and 2% DMSO, and the BKG was prepared with substrate buffer and 2% DMSO. A solution (12 μL) of the test compound in DMSO (compounds were diluted to 125 μM in 10% DMSO/H2 O and assayed at 25 μM where the final DMSO concentration was 2%) was added to the testing wells. The ATP/^33 P-ATP solution (10 μL: containing 50 μM unlabeled ATP and 1 μCi ^33 P-ATP) was added to all wells and the completed plates were mixed and incubated at 30° C. for 30 min. Icecold 50% TCA/10 mM sodium phosphate (60 μL) were added to each well and the plates were kept on ice for 15 min. The contents of each well were transferred to the wells of a 96-well filterplate (Millipore, MultiScreen-DP) and the filterplate was placed on a vacuum manifold, fitted with a waste collection tray. The wells were washed five times with 10% TCA/10 mM sodium phosphate (200 μL) under vacuum. MicroScint-20 scintillant was added, the plates were sealed using Topseal-S sheets and counted in a Packard TopCount scintillation counter using a ^33 P liquid program with color quench correction, where the output is in color quench-corrected cpm. The % inhibition of the test compounds was calculated by the following formula: % inhibition=[1-(sample-BKG)/(CTRL-BKG)]×100.
Although compounds were initially tested at 25 μM, if warranted the compounds were tested at 4-fold increments above and below that concentration. In addition, lC50 s were calculated for some compounds using the Deltagraph 4-parameter curve fitting program.

Consider `O=S(=O)(NCCCSc1nc(-c2ccc(F)cc2)c(-c2ccncc2)[nH]1)c1ccccc1` [Compound 30], for which the CPSB % inhibition at p38 (@ 20 μm) is recorded as 92%. The IC50 in the test with TNF-α [1] (human PBMC, LPS) was 100 nM.

On to `O=C(NCCCSc1nc(-c2ccncc2)c(-c2ccc(F)cc2)[nH]1)c1cccc2ccccc12` [Compound 28], for which the IC50 turned out to be 1250 nM at p38; 97 nM in the test with TNF-α [1] (Homo sapiens, PBMC); 86 nM in the test on IL-1β.

With `CC(=O)OCCCCc1nc(-c2ccc(F)cc2)c(-c2ccncc2)n1Cc1ccccc1` [Compound 17, 4-[1-Benzyl-4-(4-fluorophenyl)-5-(4-pyridyl)imidazol-2-yl]butyl acetate], the IC50 was 2630 nM on p38 and 500 nM in the test with TNF-α [1] (Homo sapiens, PBMC).

As to `O=C(NCCCSc1nc(-c2ccncc2)c(-c2ccc(F)cc2)[nH]1)c1ccccc1` [Compound 26], the IC50 turned out to be 2180 nM at p38 and 100 nM with TNF-α [1] (Homo sapiens, PBMC).

In the case of `C[Si](C)(C)CCOCn1c(CCCCO)nc(-c2ccncc2)c1-c1ccc(F)cc1` [Compound 46], the CPSB % inhibition at p38 (@ 20 μm) is listed as 9%. Moreover, the “TNF-α inhibition in words” value with TNF-α [1] (human PBMC, LPS) was “inactive”.

On to `O=S(=O)(CCO)Cc1nc(-c2ccncc2)c(-c2ccc(F)cc2)[nH]1` [Compound 15, 5-(4-Fluorophenyl)-2-[4-hydroxy-2-sulfonyl-but-1-yl]-4-(4-pyridyl)-imidazole], for which the IC50 in the test on TNF-α [1] (human PBMC, LPS) amounted to 40 nM. In addition, in the test on TNF-α [2], the “inhibited TNF-α production in the mouse” value was determined as 88%.

As for `O=Cc1nc(-c2ccncc2)c(-c2ccc(F)cc2)[nH]1` [Compound 8, 5(4)-(4-Fluorophenyl)-4(5)-(4-pyridyl)-2-imidazole carboxaldehyde], the IC50 on p38 turned out to be 800 nM; in the test with TNF-α [1] (Homo sapiens, PBMC) it was 140 nM.

Take `O=C1c2ccccc2C(=O)N1CCSc1nc(-c2ccc(F)cc2)c(-c2ccncc2)[nH]1` [Compound 25]: at p38 (@ 5 μm), the CPSB % inhibition is 52%. For the same compound, the IC50 in the test on TNF-α [1] (human PBMC, LPS) is 500 nM.

With `O=C(NCCCSc1nc(-c2ccncc2)c(-c2ccc(F)cc2)[nH]1)c1cccs1` [Compound 4, 5(4)-(4-Fluorophenyl)-2-(3-(thien-2-ylamido)prop-1-yl)thio-4(5)-(4-pyridyl)-imidazole], the IC50 was determined as 1250 nM on p38 and 10 nM in the test with TNF-α [1] (Homo sapiens, PBMC).

On to `O=C(CCCO)c1nc(-c2ccncc2)c(-c2ccc(F)cc2)[nH]1` [Compound 10, 4-Hydroxy-1-[5-(4-fluorophenyl)-4-(4-pyridyl)-imidazol-2-yl]butanone], for which the IC50 in the test with TNF-α [1] (human PBMC, LPS) was 400 nM; in the test with IL-1β it was 800 nM.

With `OCCCCc1nc(-c2ccncc2)c(-c2ccc(F)cc2)[nH]1` [Compound 16b, 4-[5(4)-(4-Fluorophenyl)4(5)-(4-pyridyl)imidazol-2-yl]butanol], the IC50 was 1590 nM on p38 and 10 nM in the test with TNF-α [1] (Homo sapiens, PBMC).

As to `O=C(NCCCSc1nc(-c2ccc(F)cc2)c(-c2ccncc2)[nH]1)c1ccco1` [Compound 29], the CPSB % inhibition on p38 (@ 20 μm) was 91%. In the test with TNF-α [1] (human PBMC, LPS), the IC50 was determined as 112 nM.

In the case of `O=C1c2ccccc2C(=O)N1CCCn1c(CO)nc(-c2ccc(F)cc2)c1-c1ccncc1` [Compound 56], the IC50 in the test on TNF-α [1] (human PBMC, LPS) was found to be 30 nM. The “inhibited TNF-α production in the mouse” value in the test on TNF-α [2] was 37%.

Regarding `Fc1ccc(-c2[nH]c(SCC3CC3)nc2-c2ccncc2)cc1` [Compound 23], the IC50 on p38 lay within 1000 to 1800 nM.

`CC(=O)OCCCCc1nc(-c2ccncc2)c(-c2ccc(F)cc2)n1COCC[Si](C)(C)C` [Compound 45]: at p38 (@ 20 μm), the CPSB % inhibition is 8%. Besides, the “TNF-α inhibition in words” value in the test on TNF-α [1] (human PBMC, LPS) was “inactive”.

For `CCSc1nc(-c2ccncc2)c(-c2ccc(F)cc2)[nH]1` [Compound 39], the IC50 on p38 came to 400 nM.

In the case of `CC(C)Sc1nc(-c2ccncc2)c(-c2ccc(F)cc2)[nH]1` [Compound 22], the IC50 at p38 worked out at 470 nM.

Consider `CCCS(=O)(=O)Cc1nc(-c2ccncc2)c(-c2ccc(F)cc2)[nH]1` [Compound 59], for which the IC50 with TNF-α [1] (human PBMC, LPS) was found to be 55 nM; in the test on IL-1β, 350 nM.

As for `C=CCSc1nc(-c2ccncc2)c(-c2ccc(F)cc2)[nH]1` [Compound 37], the IC50 on p38 is 750 nM.

With `O=C1c2ccccc2C(=O)N1CCCCSc1nc(-c2ccncc2)c(-c2ccc(F)cc2)[nH]1` [Compound 27], the IC50 was determined as 2460 nM at p38 and 2000 nM in the test with TNF-α [1] (Homo sapiens, PBMC).

In the case of `O=C1c2ccccc2C(=O)N1CCCSc1nc(-c2ccc(F)cc2)c(-c2ccncc2)[nH]1` [Compound 2, 5(4)-(4-Fluorophenyl)-2-(3-phthalimidoprop-1-yl)thio-4(5)-(4-pyridyl)-imidazole], the IC50 on p38 was 790 to 1800 nM; in the test on TNF-α [1] (Homo sapiens, PBMC), 1000 nM.
